One test deals with T1, KDM5B (PLU-1) (Homo sapiens, UniProt Q9UGL1).
T1 sequence (Q9UGL1 1-809): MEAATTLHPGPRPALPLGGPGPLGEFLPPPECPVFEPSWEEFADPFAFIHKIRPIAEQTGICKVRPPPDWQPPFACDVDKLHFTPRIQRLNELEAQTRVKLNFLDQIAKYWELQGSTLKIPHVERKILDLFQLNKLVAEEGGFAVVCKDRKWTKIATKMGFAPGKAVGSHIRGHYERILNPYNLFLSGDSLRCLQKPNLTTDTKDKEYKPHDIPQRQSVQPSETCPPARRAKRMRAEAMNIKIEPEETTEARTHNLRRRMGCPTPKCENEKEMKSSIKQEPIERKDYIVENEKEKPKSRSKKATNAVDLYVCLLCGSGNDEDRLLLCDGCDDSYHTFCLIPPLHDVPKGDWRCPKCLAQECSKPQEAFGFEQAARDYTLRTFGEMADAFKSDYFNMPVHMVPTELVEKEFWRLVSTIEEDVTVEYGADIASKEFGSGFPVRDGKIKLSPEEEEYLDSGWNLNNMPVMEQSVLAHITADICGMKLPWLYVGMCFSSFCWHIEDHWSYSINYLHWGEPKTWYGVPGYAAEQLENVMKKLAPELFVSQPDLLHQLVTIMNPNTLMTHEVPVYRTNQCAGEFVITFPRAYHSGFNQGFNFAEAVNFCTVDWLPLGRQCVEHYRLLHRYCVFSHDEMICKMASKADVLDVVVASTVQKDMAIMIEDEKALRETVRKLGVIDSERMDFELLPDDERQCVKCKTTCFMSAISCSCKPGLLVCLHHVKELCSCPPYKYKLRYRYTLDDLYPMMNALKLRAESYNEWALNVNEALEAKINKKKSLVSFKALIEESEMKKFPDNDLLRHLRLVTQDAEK
As to the kind of experiment: Histone lysine demethylase AlphaLISA assay, KDM5B. The format is biochemical. Particulars: read-out: KDM5B HDME Inhibition IC50. Put shortly: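 Enzyme 10 min pre-incubation; + compound (3% DMSO soln) 10 min; + biotin-H3 methyl-Lys peptide, 25 μM L-Asc, 10 μM α-KG, RT. Read: AlphaLISA acceptor beads, then streptavidin donor beads, RT, dark.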

In a further test the target is T2, KDM3B (JMJD1B) (Homo sapiens, UniProt Q7LBC6).
T2 construct: 842-1761; host or cells: Bac (baculovirus system)
T2 sequence (Q7LBC6 842-1761): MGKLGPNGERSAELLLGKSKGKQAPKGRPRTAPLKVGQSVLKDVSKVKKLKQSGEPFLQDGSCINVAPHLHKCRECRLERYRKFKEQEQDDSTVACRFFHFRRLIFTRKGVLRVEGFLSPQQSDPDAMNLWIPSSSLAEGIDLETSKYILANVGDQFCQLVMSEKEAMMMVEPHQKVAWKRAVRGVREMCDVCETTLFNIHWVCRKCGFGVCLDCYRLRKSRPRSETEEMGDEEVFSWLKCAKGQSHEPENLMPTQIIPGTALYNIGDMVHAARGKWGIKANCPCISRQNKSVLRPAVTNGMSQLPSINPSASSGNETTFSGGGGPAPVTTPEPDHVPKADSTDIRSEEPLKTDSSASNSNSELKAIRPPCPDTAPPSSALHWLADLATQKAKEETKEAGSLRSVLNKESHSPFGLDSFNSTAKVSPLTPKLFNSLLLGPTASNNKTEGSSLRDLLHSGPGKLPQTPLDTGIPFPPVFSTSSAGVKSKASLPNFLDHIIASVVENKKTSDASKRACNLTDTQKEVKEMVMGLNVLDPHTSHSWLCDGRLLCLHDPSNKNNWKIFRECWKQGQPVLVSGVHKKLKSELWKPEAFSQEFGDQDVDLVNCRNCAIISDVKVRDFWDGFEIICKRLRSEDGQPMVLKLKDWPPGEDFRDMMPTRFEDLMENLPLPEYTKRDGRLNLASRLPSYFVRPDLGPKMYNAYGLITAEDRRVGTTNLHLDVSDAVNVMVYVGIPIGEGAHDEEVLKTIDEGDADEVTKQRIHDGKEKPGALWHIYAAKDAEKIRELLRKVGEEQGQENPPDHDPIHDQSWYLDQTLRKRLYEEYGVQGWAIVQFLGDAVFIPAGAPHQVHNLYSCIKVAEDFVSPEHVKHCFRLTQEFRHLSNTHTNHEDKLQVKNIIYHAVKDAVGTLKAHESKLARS
Put plainly: Histone lysine demethylase AlphaLISA assay, KDM3B. The format is biochemical. Particulars: read-out: KDM3B HDME Inhibition IC50. The protocol:
Assays are performed analogously to the protocol described by PerkinElmer (Roy et al. PerkinElmer Technical Note: AlphaLISA #12, April 2011)
Enzymes are dissolved in enzyme buffer and incubated for 10 min before being added to 3% DMSO solutions of compounds in enzyme buffer. Incubated for another 10 minutes, before substrate solution is added and the reaction mixture is incubated at room temperature. 10 μL acceptor beads, suspended in Epigenetic Buffer (Perkin Elmer AL008) from stock, are added and the suspension is incubated in the dark at room temperature, before a suspension of streptavidin donor beads (Perkin Elmer 6760002) in Epigenetic Buffer is added. After incubation at room temperature in the dark the plates are read. […]
BK9M2: Biotin-ARTKQTAR(KMe2)STGGKAPRKQ-NH2 (AnaSpec 64359) […]
Substrate Solution: Substrate, 25 μM L-Asc, and 10 μM α-KG in Buffer A.
For orientation: In Alpha technology, singlet oxygen from a donor bead excites a nearby acceptor bead.

In a further test the test system is MCF7 cells. As to the kind of experiment: Cell proliferation assay MCF7. The format is cell-based. Particulars: MCF7 human breast cancer cells; 120 hours; ATPlite 1 Step. A digest of the protocol: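 After 120 h of compound exposure (duplicates, DMSO at most 0.5%) in DMEM GlutaMAX with 10% FBS, ATPlite 1 Step luminescence measured cellular ATP. Compound was added 24 h after seeding, at a density chosen for ~90% confluence at the end.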
Background: In ATP-based viability assays light output follows the ATP content of the culture.

The source of these data is US9650339B2, “Inhibitors of histone demethylases” (Gilead Sciences, Inc., priority 2013, dated 2017).

Take `C(=N/C1CC1)/c1ccnc(CNCCCN2CCCC2)c1` [Compound 42, N-{[2-({[3-(pyrrolidin-1-yl)propyl]amino}-methyl)pyridin-4-yl]methylidene}-cyclopropanamine]: the IC50 on KDM5B (PLU-1) was less than 0.25 µM; at KDM3B (JMJD1B) it was greater than 2.5 µM. The EC50 in the test with MCF7 cells is less than 0.25 µM.

On to `CCN(CC)CCCCNCc1cc(/C=N/CCOC)ccn1` [Compound 60, [4-(diethylamino)butyl]-({4-[[(2-methoxyethyl)imino]-methyl]pyridin-2-yl}methyl)amine], for which the IC50 is less than 0.25 µM at KDM5B (PLU-1) and greater than 2.5 µM at KDM3B (JMJD1B). In addition, the EC50 in the test on MCF7 cells is less than 0.25 µM.

As for `O=Cc1ccnc(CNCC(=O)N2CCC[C@@H]2CN2CCCC2)c1` [Compound 102, 2-[({2-oxo-2-[(2R)-2-(pyrrolidin-1-ylmethyl)pyrrolidin-1-yl]ethyl}amino)-methyl]pyridine-4-carbaldehyde], the values for the IC50 at KDM5B (PLU-1) and at KDM3B (JMJD1B) were less than 0.25 µM and greater than 2.5 µM, respectively. The compound further showed an EC50 in the test with MCF7 cells of 0.25 to 2.5 µM.

For the compound `CN(C)C/C=C/CNCc1cc(C=O)ccn1` [Compound 98, 2-({[(2E)-4-(dimethylamino)but-2-en-1-yl]amino}-methyl)pyridine-4-carbaldehyde], the IC50 on KDM5B (PLU-1) is less than 0.25 µM; at KDM3B (JMJD1B) it was greater than 2.5 µM. Further, the EC50 in the test with MCF7 cells was less than 0.25 µM.

Turning to `CCN(CC)CCCCNCc1cc(C2NCCN2C)ccn1` (stereo not shown) [Compound 65, [4-(diethylamino)-butyl]({[4-(1-methylimidazolidin-2-yl)pyridin-2-yl]methyl})amine], the IC50 on KDM5B (PLU-1) is less than 0.25 µM; at KDM3B (JMJD1B), greater than 2.5 µM. The same compound registered an EC50 in the test with MCF7 cells of less than 0.25 µM.

Regarding `CN(C)CCC/N=C/c1ccnc(CNCCCN(C)C)c1` [Compound 37, [3-(dimethylamino)propyl]-({4-[{[3-(dimethylamino)propyl]-imino}methyl]pyridin-2-yl}methyl)amine], the results for the IC50 on KDM5B (PLU-1) and at KDM3B (JMJD1B) were less than 0.25 µM and greater than 2.5 µM, respectively. Further, the 50% effective concentration (EC50) in the test on MCF7 cells is less than 0.25 µM.

Turning to `CN(C)CCCCCNCc1cc(CN)ccn1` [Compound 8, [2-({[5-(dimethylamino)pentyl]-amino}methyl)pyridin-4-yl]methanamine], the IC50 on KDM5B (PLU-1) was less than 0.25 µM; at KDM3B (JMJD1B) it was greater than 2.5 µM. In the test with MCF7 cells, this compound had an EC50 of less than 0.25 µM.

In the case of `CN(Cc1ccccc1F)C(=O)CNCc1cc(/C=N/CCO)ccn1` [Compound 92, N-[(2-fluorophenyl)methyl]-2-[({4-[[(2-hydroxyethyl)imino]-methyl]pyridin-2-yl}methyl)amino]-N-methylacetamide], at KDM5B (PLU-1), the IC50 lay within 0.25 to 2.5 µM. The compound also gave an EC50 in the test on MCF7 cells greater than 2.5 µM.

As to `OCC/N=C/c1ccnc(CNCCc2ccccc2OCc2ccccc2)c1` [Compound 93, 2-[({2-[({2-[2-(benzyloxy)phenyl]-ethyl}amino)methyl]-pyridin-4-yl}methylidene)-amino]ethan-1-ol], the IC50 at KDM5B (PLU-1) was greater than 2.5 µM. Also, the EC50 in the test with MCF7 cells is greater than 2.5 µM.

Regarding `CCN(CCN(C)C)C(=O)CNCc1cc(/C=N/CCC2CCCCC2)ccn1` [Compound 63, 2-[({4-[[(2-cydohexylethyl)-imino]methyl]pyridin-2-yl}methyl)amino]-N-[2-(dimethylamino)-ethyl]-N-ethylacetamide], the IC50 on KDM5B (PLU-1) is less than 0.25 µM; at KDM3B (JMJD1B), greater than 2.5 µM. Besides, the EC50 in the test on MCF7 cells is less than 0.25 µM.

As for `CN(C)CCCCNCc1cc(/C=N\C2CC2)ccn1` [Compound 45, N-{[2-({[4-(dimethylamino)butyl]-amino}methyl)-pyridin-4-yl]methylidene}-cyclopropanamine], the values for the concentration for half-maximal inhibition (IC50) at KDM5B (PLU-1) and on KDM3B (JMJD1B) were 0.25 to 2.5 µM and greater than 2.5 µM, respectively.

For the compound `CN(CCCn1cccn1)C(=O)CNCc1cc(/C=N/C2CC2)ccn1` [Compound 52, 2-[({4-[N-cyclopropyl-carboximidoyl]-pyridin-2-yl}methyl)amino]-N-methyl-N-[3-(1H-pyrazol-1-yl)propyl]acetamide], the IC50 on KDM5B (PLU-1) was less than 0.25 µM; on KDM3B (JMJD1B), greater than 2.5 µM.

On to `CN(C)C(=O)CNCc1cc(/C=N/CCCc2ccccc2)ccn1` [Compound 34, N,N-dimethyl-2-[({4-[[(3-phenylpropyl)imino]-methyl]pyridin-2-yl}methyl)amino]-acetamide], for which the IC50 is less than 0.25 µM at KDM5B (PLU-1) and greater than 2.5 µM at KDM3B (JMJD1B). The same compound yielded an EC50 in the test on MCF7 cells greater than 2.5 µM.

For the compound `CC(C)C[C@H](NCc1cc(/C=N/CCO)ccn1)C(=O)N1CCCCC1` [Compound 95, (2S)-2-[({4-[[(2-hydroxyethyl)imino]-methyl]pyridin-2-yl}methyl)amino]-4-methyl-1-(piperidin-1-yl)pentan-1-one], the IC50 on KDM5B (PLU-1) is greater than 2.5 µM. The compound also returned an EC50 in the test with MCF7 cells greater than 2.5 µM.

Consider `CNCc1ccnc(CNCCCN(C)Cc2ccccc2)c1` [Compound 17, benzyl(methyl){3-[({4-[(methylamino)methyl]-pyridin-2-yl)methyl)-amino]propyl}-amine], for which the 50% inhibitory concentration (IC50) at KDM5B (PLU-1) is less than 0.25 µM; on KDM3B (JMJD1B), greater than 2.5 µM.

With `CCSCCNCc1cc(/C=N/C2CC2)ccn1` [Compound 39, N-{[2-({[2-(ethylsulfanyl)-ethyl]amino}methyl)pyridin-4-yl]methylidene}-cyclopropanamine], the IC50 at KDM5B (PLU-1) is 0.25 to 2.5 µM; on KDM3B (JMJD1B), greater than 2.5 µM.

For `CCN1CCCC1CNC(=O)CNCc1cc(/C=N/C2CC2)ccn1` (stereo not shown) [Compound 51, 2-[({4-[N-cyclopropyl-carboximidoyl]-pyridin-2-yl}methyl)-amino]-N-[(1-ethylpyrrolidin-2-yl)methyl]acetamide], the IC50 is less than 0.25 µM on KDM5B (PLU-1) and greater than 2.5 µM at KDM3B (JMJD1B).

As to `CCN(CCC#N)C(=O)CNCc1cc(/C=N/CCO)ccn1` [Compound 94, N-(2-cyanoethyl)-N-ethyl-2-[({4-[[(2-hydroxyethyl)imino]-methyl]pyridin-2-yl}methyl)amino]-acetamide], at KDM5B (PLU-1), the half-inhibitory concentration (IC50) was less than 0.25 µM. The compound further came in with an EC50 with MCF7 cells greater than 2.5 µM.

Regarding `O=C(CNCc1cc(/C=N/C2CC2)ccn1)N1CCC(Cc2ccccc2)CC1` [Compound 55, 1-(4-benzylpiperidin-1-yl)-2-[({4-[N-cyclopropyl-carboximidoyl]-pyridin-2-yl}methyl)amino]-ethan-1-one], the IC50 on KDM5B (PLU-1) is less than 0.25 µM; at KDM3B (JMJD1B), greater than 2.5 µM.

For `CN(CCCNCc1cc(/C=N/C2CC2)ccn1)Cc1ccccc1` [Compound 41, N-({2-[({3-[benzyl(methyl)amino]-propyl}amino)methyl]-pyridin-4-yl}methylidene)-cyclopropanamine], the values for the IC50 on KDM5B (PLU-1) and at KDM3B (JMJD1B) were less than 0.25 µM and greater than 2.5 µM, respectively.

As usually defined, the IC50 is the midpoint of a concentration-inhibition curve. What is called EC50 is the concentration at which the effect is half-maximal. A lower EC50 goes with an effect from little substance.
